Test system: MRL/lpr model of Systemic Lupus Erythematosus
Assay: MRL/lpr model of systemic lupus erythematosus (SLE)
Assay type: in vivo, mouse
Settings: MRL/lpr mice, oral once daily 8 weeks
Description: MRL/Lpr Model of Systemic Lupus Erythematosus (SLE) Male MRL/lpr mice of 12-14 weeks age were screened and randomized based on the titers of anti-dsDNA antibodies and urinary NGAL (Neutrophil Gelatinase Associated Lipocalin). Mice were treated orally, once daily for 8 weeks with vehicle or test compound. The effect of test compound on disease severity was assessed by measuring end points including proteinuria, urinary-NGAL, anti-dsDNA Ab titer, and lymphadenopathy. These end points were assessed before the start of treatment and after 4 and 8 weeks of treatment. At the end of experiment, all mice were euthanized by CO2 asphyxiation and kidney samples were subjected for histology. At the end of experiment, one way ANOVA with Dunnett's test was performed to calculate the significance of test compound treated group vs. vehicle control group. Percent reduction in disease severity was calculated for each parameter, for test compound treated group vs vehicle control group. A cumulative disease score and the percent reduction in cumulative disease score was calculated by considering the average inhibition in all parameters except lymphadenopathy to reflect the impact on the overall severity of disease progression.

## COc1ccc(-c2[nH]c3ccc(C4CCN(C(=O)CN(C)C)CC4)cc3c2C(C)C)cc1OC [Example 209, 1-(4-(2-(3,4-dimethoxyphenyl)-3-isopropyl-1H-indol-5-yl)piperidin-1-yl)-2-(dimethylamino)ethan-1-one]
Dose 1 mg/kg
  % inhibition Anti-dsDNA antibody titer: 44%
  % inhibition Cumulative score: 42%
  % inhibition IL-10: 10%
  % inhibition IL-12p40: 13%
  % inhibition Lymphadenopathy: 35%
  % inhibition Proteinuria: 46%
  % inhibition Urinary NGAL: 36%
Dose 2 mg/kg
  % inhibition Anti-dsDNA antibody titer: 57%
  % inhibition Cumulative score: 55%
  % inhibition IL-10: 22%
  % inhibition IL-12p40: 24%
  % inhibition Lymphadenopathy: 38%
  % inhibition Proteinuria: 57%
  % inhibition Urinary NGAL: 52%
Dose 5 mg/kg
  % inhibition Anti-dsDNA antibody titer: 67%
  % inhibition Cumulative score: 61%
  % inhibition IL-10: 36%
  % inhibition IL-12p40: 18%
  % inhibition Lymphadenopathy: 50%
  % inhibition Proteinuria: 61%
  % inhibition Urinary NGAL: 54%
Dose 7.5 mg/kg
  % inhibition Anti-dsDNA antibody titer: 70%
  % inhibition Cumulative score: 67%
  % inhibition IL-10: 36%
  % inhibition IL-12p40: 27%
  % inhibition Lymphadenopathy: 58%
  % inhibition Proteinuria: 68%
  % inhibition Urinary NGAL: 62%

— patent US11180474B2 (BRISTOL-MYERS SQUIBB COMPANY, priority 2016, dated 2021)
